The text below walks through data of paper PMC12040169 (PLOS Biology, 2025).

In general, viability refers to a read-out of living cells in per cent, often relative to untreated cells.

The first data set can be described thus: in vitro. As to conditions: human, hela cells.
For the compound `CS(=O)(=O)c1ccc(-c2ccc3c(c2)OCCN(C2CCN(C(=O)Oc4ccccc4)CC2)C3)cc1` [CBK169259], the viability at 28.5 h, 10 µM is 79.9%.

The same data set, now with this note: human, hela cells, % viability.
In the case of `COc1ccc(CN2CC(C(=O)O)CC2=O)cc1` (stereo not shown) [CBK267242], the viability at 28.5 h, 10 µM was determined as 96.4%. In the case of `O=C(CSc1nnc(-c2ccccc2O)n1-c1ccccc1)N1CCc2ccccc21` [CBK268097], the viability at 28.5 h, 10 µM is 100%.

Take `Nc1ccc(C(=O)Nc2ccc(Nc3cc(-c4ccccc4OCc4ccccc4)ncn3)cc2)cc1` [CBK091092]: the viability at 28.5 h, 10 µM was determined as 94.4%. Same read-out and setting: next, `Cc1ccccc1C(=O)Nc1cccc(NC(=O)c2ccc(-c3cc4ccccc4oc3=O)cc2)c1` [CBK267256]: 118%. On the same count and under the same terms, next, `Cn1cccc1CNCCc1ccc(S(N)(=O)=O)cc1` [CBK267831C]: 98.7%; `CCc1c(C)nc2ccccc2c1SCCOC(=O)Nc1ccc(OC)cc1` [CBK155554T]: 92.5%; `Clc1cccc(-c2cn3ccnc3c(NCc3cccnc3)n2)c1` [CBK066237]: 104%. As to `Cc1cc(COc2cc(N3CCCC3)ncn2)no1` [CBK115898], the viability at 28.5 h, 10 µM came to 93.1%. The same measure, in the same setting: next, `CC(C)C(=O)Nc1ccc2c(-c3ccc4c(c3)CCO4)ccnc2n1` [CBK073672]: 87.7%; `CC(C)OCc1ccc(C(=O)N2CCC(C(=O)O)CC2)cc1` [CBK297141]: 83.2%. As to `O=c1cc2oc3cc(O)c(O)cc3c(-c3cccc(OCc4ccc([N+](=O)[O-])cc4)c3)c-2cc1O` [CBK265388], the viability at 28.5 h, 10 µM came to 91%. Consider `CNc1ccc2cccc(OCCO)c2n1` [CBK149727], for which the viability at 28.5 h, 10 µM amounted to 95.6%. Regarding `O=C(O)c1ccc(S(=O)(=O)c2ccc3c(c2)C(=O)N(c2ccccc2-c2ccccc2)C3=O)cc1` [CBK262760], the viability at 28.5 h, 10 µM amounted to 101%. With `CC(=O)c1ccc(-c2nc(-c3cccc(OC(F)(F)F)c3)cnc2N)cc1` [CBK064105], the viability at 28.5 h, 10 µM worked out at 103%. The same measure, in the same setting: next, `CC1CCCN(CCCNS(=O)(=O)c2ccc(N3CCCC3=O)cc2)C1` (stereo not shown) [CBK304213]: 90%; `Cn1c(=O)c2[nH]c(N3CCCCC3)nc2n(C)c1=O` [CBK027630]: 86.1%; `CSc1cc(-c2ccc(F)cc2)n[nH]1` [CBK028809]: 123%.

As to `c1cc(CCCOc2cc(N3CCCC3)ncn2)ccn1` [CBK115897], the viability at 28.5 h, 10 µM is 84.4%. Same read-out and setting: for `COc1ccc(CSc2nc(N)c3c4c(sc3n2)CCCC4)cc1` [CBK131876] the value was 85.8%; for `CC(=O)Nc1ccc(S(=O)(=O)Nc2nnc(Cc3ccc(Cl)cc3)s2)cc1` [CBK045515], 97.9%; for `Cc1cc(S(=O)(=O)Nc2ccc(C(C)(C)C)cc2)sc1C(=O)O` [CBK297946], 88.1%. In the case of `NC(=O)c1ccccc1NC(=O)CCCN1C(=O)CCC1=O` [CBK267680], the viability at 28.5 h, 10 µM was 94.1%. Take `Cc1cc(CC(=O)NCCCn2ccnc2C(C)C)on1` [CBK307270]: the viability at 28.5 h, 10 µM stood at 99.7%.

Consider `C/N=C1/c2cn3ccccc3c2CCN1C` [CBK022058], for which the viability at 28.5 h, 10 µM stood at 116%. On the same count and under the same terms, next, `O=C(N/N=C/c1cc2c(cc1Cl)OCO2)C(O)c1ccccc1` (stereo not shown) [CBK262177]: 112%; `COC(=O)c1cnn2c(C)c(Cc3cccc(Br)c3)c(C)nc12` [CBK160273]: 90.4%.

On to `CC(C)Nc1nc(Cl)nc(Nc2ccc(I)cc2)n1` [CBK027685], for which the viability at 28.5 h, 10 µM turned out to be 97.6%. Same read-out and setting: next, `CCOC(=O)c1cnn(C2CCCN(Cc3ccc(C#N)o3)C2)c1` (stereo not shown) [CBK304045]: 116%; `O=C(O)c1cc(S(=O)(=O)Nc2ccccc2)ccc1O` [CBK109969]: 83.2%. Still for that read-out and setting: next, `Cc1nn2c(-c3ccc(NC(=O)c4cccs4)cc3)nnc2c2ccccc12` [CBK267134]: 89.6%; `CCOC(=O)N1CCN(Cc2ccc(OCc3nccn3C)cc2)CC1` [CBK305413]: 94%. Same read-out and setting: for `O=C(Oc1ccccc1)c1ccnc(Cl)c1` [CBK090322] the value was 87.2%; for `CCN1CCN(c2ncnc3c2cnn3-c2cccc(C)c2)CC1` [CBK265814], 93.8%. As to `CC(=O)Nc1cccc(NC(=O)c2cc(-c3ccccc3)nn2-c2ccccc2)c1` [CBK296997], the viability at 28.5 h, 10 µM worked out at 90.1%. The same measure, in the same setting: next, `COc1cccc2sc(Nc3nc(C)c(C(C)=O)s3)nc12` [CBK287471]: 109%; `CC(=O)Nc1cccc(-c2nccnc2C2CCCN(CCc3ccccc3)C2)c1` (stereo not shown) [CBK286128]: 110%; `COc1ccccc1-c1ccc(NS(=O)(=O)c2ccc3c(c2)CCC(=O)N3)cc1` [CBK286353]: 82.5%.

Turning to `CCc1nc2c(OCc3ccccc3)cccn2c1N(Cc1ccc(OC)cc1)C(C)=O` [CBK147887], the viability at 28.5 h, 10 µM is 89.8%. On to `O=C1NC2(CCNCC2)Oc2ccc(-c3cccnc3)cc21` [CBK086611], for which the viability at 28.5 h, 10 µM is 95.4%. On to `Cc1cc(C)c(NC(=O)N(CCCO)Cc2ccncc2)c(Cl)c1` [CBK304406], for which the viability at 28.5 h, 10 µM was determined as 87.3%. `N#Cc1cn([C@@H]2O[C@H](CO)[C@H](O)C2O)c2ncnc(N)c12` (stereo partly shown) [CBK201204]: the viability at 28.5 h, 10 µM was found to be 18%.

Consider `Cc1cccc(C(=O)Nc2nnc(C3=COCCO3)o2)c1` [CBK287406], for which the viability at 28.5 h, 10 µM was determined as 94%. On the same count and under the same terms, next, `O=C1CC2(CCN(C(=O)C3CCCC3)CC2)Oc2ccc(Cl)cc21` [CBK283625]: 90.9%; `CCOC(=O)c1ccc(S(=O)(=O)N2CCCCC2)cc1` [CBK069738]: 106%; `COC(=O)c1ccc(CSc2nnc(-n3sc4ccccc4c3=O)s2)cc1` [CBK116502]: 90.6%. For the compound `CC(Cn1cccn1)NCc1cn(C)c2cc(F)ccc12` (stereo not shown) [CBK282220], the viability at 28.5 h, 10 µM was determined as 88.4%. For the compound `CCn1c(N2CCCC(C(=O)NC3CC3)C2)nc2ccccc21` (stereo not shown) [CBK282419], the viability at 28.5 h, 10 µM came to 106%. Still for that read-out and setting: next, `CC(C)NC(=O)C1(Cc2ccc(-c3ccccc3)cc2)CCN(C(=O)C2CCCC2)CC1` [CBK285751]: 101%; `CCc1nc2ccc(C(=O)N3CCN(S(=O)(=O)CC)CC3)cn2c1N(C)CC` [CBK145520]: 85.1%; `O=C(O)C1CC(=O)N(c2cccc3ccccc23)C1` (stereo not shown) [CBK286902]: 88.8%. For the compound `CCCn1c(CN2CCOCC2)nc2ccccc21` [CBK287784], the viability at 28.5 h, 10 µM worked out at 99.1%. For `Cc1cc(C(=O)N2CCC(N3C(=O)OCC3(C)C)CC2)n(C(C)(C)C)n1` [CBK044233], the viability at 28.5 h, 10 µM came to 94.4%. On the same count and under the same terms, for `CCN(CC)S(=O)(=O)c1csc(C(=O)Nc2cccc([N+](=O)[O-])c2)c1` [CBK264505] the value was 91.3%; for `Cc1cnn(C2CCCN(C(=O)CC3OCCc4sccc43)C2)c1` (stereo not shown) [CBK305329], 84.6%. As to `Nc1nonc1OCCCCOc1nonc1N` [CBK027716], the viability at 28.5 h, 10 µM stood at 110%. As for `CCn1c2cc(C)sc2c2cnn(CC(=O)NC3CC3)c(=O)c21` [CBK284170], the viability at 28.5 h, 10 µM came to 89.3%. On the same count and under the same terms, next, `CC(=O)NCCNC(=O)c1cc(Br)cnc1NCCOc1ccccc1` [CBK076232]: 103%; `O=C(NCCN1CCOCC1)c1cc(Br)cnc1N1CCOCC1` [CBK076202]: 104%; `CN(C)c1ccc(CC(=O)N2CCc3ccccc3C2)cc1` [CBK200340]: 93.7%. With `O=C(Cc1ccccc1)Nc1ccc(NC(=O)c2ccc(-c3ccccc3)cc2)cc1` [CBK268821], the viability at 28.5 h, 10 µM came to 87.2%. Consider `Nc1nc(C2CC(O)C2)cc(N2CCC(Oc3ccccc3Cl)CC2)n1` (stereo not shown) [CBK307392], for which the viability at 28.5 h, 10 µM is 93.2%. Still for that read-out and setting: next, `CC(C)(C)C1=CC2=NC3(CCC3)C3C[C@@H](O)[C@@H](O)[C@]3(COCc3ccccc3)N2O1` (stereo partly shown) [CBK303260]: 99.6%; `Cc1cc(C(=O)C(C)Oc2ccc(-c3nnco3)cc2)c(C)n1-c1ccccc1` (stereo not shown) [CBK297104]: 101%; `C[C@H]1CC[C@H](C(=O)N2CCC[C@H]2C(=O)O)CC1` [CBK028320]: 81.9%. `CCc1cc(OCCCSc2nc(C)cc(O)n2)ccc1Cl` [CBK267364]: the viability at 28.5 h, 10 µM is 106%. As to `Cc1cc(O)c(C(=O)Nc2cccc(Cl)c2)c(=O)n1Cc1ccccn1` [CBK287729], the viability at 28.5 h, 10 µM amounted to 99.3%. `O=C(N/N=C/c1cccnc1)C1CCCN(S(=O)(=O)c2ccccc2)C1` (stereo not shown) [CBK262712]: the viability at 28.5 h, 10 µM was found to be 91.5%. As for `COc1cc(C=C2SC(=S)N(CCCCCC(=O)O)C2=O)cc(OC)c1` [CBK297505], the viability at 28.5 h, 10 µM turned out to be 98.1%.

Take `O=C(CSCc1ccc(Cl)cc1Cl)Nc1ccc(O)cc1C(=O)O` [CBK275322]: the viability at 28.5 h, 10 µM amounted to 95%. The same measure, in the same setting: next, `Cc1ccc(OC(C)C(=O)NNC(=O)c2ccc([N+](=O)[O-])cc2)cc1` (stereo not shown) [CBK269065]: 104%. Still for that read-out and setting: next, `Cc1ccc(C(=O)CN2CCC3(CC2)CC(=O)c2cc(Br)ccc2O3)cc1` [CBK162266]: 91.2%; `c1csc(Sc2nc3ccccc3nc2N2CCCC2)c1` [CBK115225]: 94.3%; `CCCN1CC(NS(=O)(=O)c2cc(-n3cccn3)ccc2C)CC1=O` (stereo not shown) [CBK306835]: 98.3%. Same read-out and setting: next, `CC1CCCCN1C(=O)C1C2CCC3(CC(=O)c4ccccc4O3)C21` (stereo not shown) [CBK284960]: 101%.

The data set is the same for the next values; noted with them: human, hela cells, % viability, bulk resorufin, single well.
`CS(=O)(=O)c1ccc(-c2ccc3c(c2)COC2(CCN(C(=O)Cc4cccc(C(F)(F)F)c4)CC2)O3)cn1` [CBK160595]: the viability at 28.5 h, 10 µM came out at 114%.

For `CC(=O)N1CCC2(CC1)OCc1cc(-c3ccc(Cl)cc3)ccc1O2` [CBK060974], the viability at 28.5 h, 10 µM stood at 113%. As to `Cc1ccc(Cl)cc1N1C(=O)NC(=O)C(CCc2ccccn2)(CCc2ccccn2)C1=O` [CBK268838], the viability at 28.5 h, 10 µM stood at 98.6%. As for `COc1ccc(N2C(=O)/C(=C/c3ccc(OCC(=O)O)c(Cl)c3)C(=O)NC2=S)cc1` [CBK264018], the viability at 28.5 h, 10 µM was found to be 93.7%.
